Experimental data published in ChEMBL document CHEMBL1201862, “PubChem BioAssay data set” (2004).
Calls of active or inactive are those of the source. Rule as the data show it, for most assays here: actives have a measured IC50 and inactives only a lower limit.

How the values were obtained:
HEK293 [1] = experiment: HEK cell cytotoxicity by LDH release, dose response, cytotoxicity control for IDE activator project, fluorescence, HEK cells (AID 588440); assay type: functional, cell-based; conditions: Homo sapiens;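 also: cytotoxicity by LDH release measuring loss of membrane integrity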
Insulin-degrading enzyme [2] = target: T1, Insulin-degrading enzyme (Homo sapiens, UniProt P14735); experiment: activators of endogenous IDE in HEK cells, dose response, cell-based, fluorescence polarization (AID 588439); assay type: functional
T1 sequence (P14735 whole entry): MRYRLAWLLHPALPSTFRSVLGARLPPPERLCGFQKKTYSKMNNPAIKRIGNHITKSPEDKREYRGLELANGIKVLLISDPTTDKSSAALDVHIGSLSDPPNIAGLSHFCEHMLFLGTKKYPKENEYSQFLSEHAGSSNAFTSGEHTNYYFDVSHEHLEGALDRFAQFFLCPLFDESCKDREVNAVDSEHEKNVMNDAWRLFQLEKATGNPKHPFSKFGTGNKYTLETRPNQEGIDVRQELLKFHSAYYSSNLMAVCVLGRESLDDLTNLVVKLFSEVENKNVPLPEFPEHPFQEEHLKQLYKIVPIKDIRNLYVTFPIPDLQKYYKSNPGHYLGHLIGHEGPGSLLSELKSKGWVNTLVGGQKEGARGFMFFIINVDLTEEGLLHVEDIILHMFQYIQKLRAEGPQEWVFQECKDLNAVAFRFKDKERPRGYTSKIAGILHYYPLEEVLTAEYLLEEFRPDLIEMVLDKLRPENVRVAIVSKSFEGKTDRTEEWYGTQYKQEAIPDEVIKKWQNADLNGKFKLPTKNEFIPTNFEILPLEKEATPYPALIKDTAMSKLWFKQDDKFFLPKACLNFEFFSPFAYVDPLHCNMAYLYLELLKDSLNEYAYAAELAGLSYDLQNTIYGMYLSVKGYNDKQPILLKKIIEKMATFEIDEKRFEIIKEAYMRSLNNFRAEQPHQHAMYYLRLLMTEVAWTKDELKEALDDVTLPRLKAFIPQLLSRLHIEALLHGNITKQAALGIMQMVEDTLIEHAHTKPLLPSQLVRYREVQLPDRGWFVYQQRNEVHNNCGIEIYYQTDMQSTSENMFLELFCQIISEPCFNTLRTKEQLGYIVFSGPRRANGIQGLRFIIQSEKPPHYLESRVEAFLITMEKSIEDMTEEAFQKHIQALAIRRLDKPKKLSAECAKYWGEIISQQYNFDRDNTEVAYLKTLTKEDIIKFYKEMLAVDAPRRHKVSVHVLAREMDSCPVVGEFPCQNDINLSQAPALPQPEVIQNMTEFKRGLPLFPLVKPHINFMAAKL

Insulin-degrading enzyme [3] = target: T1, Insulin-degrading enzyme; experiment: activators of recombinant IDE enzyme, dose response, counter-screen for IDE activator project, biochemical, fluorescence polarization (AID 588681)
HEK293 [4] = experiment: optical interference in Abeta FP readout, dose response, artefact control for IDE activator project, biochemical, fluorescence polarization (AID 588442); assay type: functional, cell-based; conditions: Homo sapiens
[5] = target: T2, Sentrin-specific protease 6 (Homo sapiens, UniProt Q9GZR1); experiment: SENP6 protease inhibitors, SAR follow-up, biochemical, luminescence, set 2 (AID 588598); assay type: functional
T2 sequence (Q9GZR1 whole entry): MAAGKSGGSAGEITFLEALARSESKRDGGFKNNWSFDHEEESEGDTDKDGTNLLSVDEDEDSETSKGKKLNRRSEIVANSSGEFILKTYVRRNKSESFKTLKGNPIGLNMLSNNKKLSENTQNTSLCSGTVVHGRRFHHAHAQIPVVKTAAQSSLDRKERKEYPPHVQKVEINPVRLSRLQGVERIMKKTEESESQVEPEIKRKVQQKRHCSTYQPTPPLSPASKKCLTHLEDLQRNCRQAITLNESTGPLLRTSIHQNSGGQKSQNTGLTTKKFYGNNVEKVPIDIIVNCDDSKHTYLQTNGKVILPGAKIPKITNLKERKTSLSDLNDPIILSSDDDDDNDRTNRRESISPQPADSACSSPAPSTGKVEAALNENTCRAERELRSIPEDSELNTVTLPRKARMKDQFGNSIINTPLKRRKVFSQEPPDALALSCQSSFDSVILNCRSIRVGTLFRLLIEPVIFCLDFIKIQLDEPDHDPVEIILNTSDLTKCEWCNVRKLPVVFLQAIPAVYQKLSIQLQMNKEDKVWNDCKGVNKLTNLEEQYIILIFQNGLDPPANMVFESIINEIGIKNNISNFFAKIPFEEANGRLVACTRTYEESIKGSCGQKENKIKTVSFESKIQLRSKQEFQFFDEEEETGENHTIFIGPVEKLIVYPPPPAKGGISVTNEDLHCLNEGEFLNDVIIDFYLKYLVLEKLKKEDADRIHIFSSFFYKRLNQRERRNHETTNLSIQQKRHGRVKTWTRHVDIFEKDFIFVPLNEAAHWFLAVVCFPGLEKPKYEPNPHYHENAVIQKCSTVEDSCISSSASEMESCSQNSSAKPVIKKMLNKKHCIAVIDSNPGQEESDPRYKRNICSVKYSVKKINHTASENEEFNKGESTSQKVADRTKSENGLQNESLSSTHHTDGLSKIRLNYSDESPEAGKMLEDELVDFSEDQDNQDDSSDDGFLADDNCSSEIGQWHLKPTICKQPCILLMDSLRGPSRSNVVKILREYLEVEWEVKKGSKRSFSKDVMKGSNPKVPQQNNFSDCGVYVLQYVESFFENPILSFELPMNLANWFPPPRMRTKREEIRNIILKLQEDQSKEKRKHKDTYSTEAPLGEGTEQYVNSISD

Caspase-3 [6] = target: T3, Caspase-3 (Homo sapiens, UniProt P42574); experiment: SAR Analysis of small molecule inhibitors of Sentrin-specific proteases (SENPs) using a Caspase-3 Selectivity assay. [Related pubchem assays (depositor defined):AID2540, AID2599, AID434973, AID489001]; assay type: functional
T3 sequence (P42574 whole entry): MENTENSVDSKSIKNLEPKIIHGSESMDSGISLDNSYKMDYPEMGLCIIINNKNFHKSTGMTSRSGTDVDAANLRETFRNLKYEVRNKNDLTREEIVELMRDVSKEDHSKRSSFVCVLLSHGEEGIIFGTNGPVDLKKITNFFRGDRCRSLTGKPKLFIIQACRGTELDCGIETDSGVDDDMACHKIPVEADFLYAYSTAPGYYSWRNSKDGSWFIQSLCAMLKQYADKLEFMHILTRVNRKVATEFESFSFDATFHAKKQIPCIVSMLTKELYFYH

[7] = target: T2, Sentrin-specific protease 6; experiment: SAR Analysis of small molecule inhibitors of Sentrin-specific protease 6 (SENP6) using a Luminescent assay. [Related pubchem assays (depositor defined):AID2582, AID2599]; assay type: functional
[8] = target: T4, Sentrin-specific protease 7 (Homo sapiens, UniProt Q9BQF6); experiment: SENP7 protease inhibitors, SAR follow-up, biochemical, luminescence, set 2 (AID 588600); assay type: functional
T4 sequence (Q9BQF6 whole entry): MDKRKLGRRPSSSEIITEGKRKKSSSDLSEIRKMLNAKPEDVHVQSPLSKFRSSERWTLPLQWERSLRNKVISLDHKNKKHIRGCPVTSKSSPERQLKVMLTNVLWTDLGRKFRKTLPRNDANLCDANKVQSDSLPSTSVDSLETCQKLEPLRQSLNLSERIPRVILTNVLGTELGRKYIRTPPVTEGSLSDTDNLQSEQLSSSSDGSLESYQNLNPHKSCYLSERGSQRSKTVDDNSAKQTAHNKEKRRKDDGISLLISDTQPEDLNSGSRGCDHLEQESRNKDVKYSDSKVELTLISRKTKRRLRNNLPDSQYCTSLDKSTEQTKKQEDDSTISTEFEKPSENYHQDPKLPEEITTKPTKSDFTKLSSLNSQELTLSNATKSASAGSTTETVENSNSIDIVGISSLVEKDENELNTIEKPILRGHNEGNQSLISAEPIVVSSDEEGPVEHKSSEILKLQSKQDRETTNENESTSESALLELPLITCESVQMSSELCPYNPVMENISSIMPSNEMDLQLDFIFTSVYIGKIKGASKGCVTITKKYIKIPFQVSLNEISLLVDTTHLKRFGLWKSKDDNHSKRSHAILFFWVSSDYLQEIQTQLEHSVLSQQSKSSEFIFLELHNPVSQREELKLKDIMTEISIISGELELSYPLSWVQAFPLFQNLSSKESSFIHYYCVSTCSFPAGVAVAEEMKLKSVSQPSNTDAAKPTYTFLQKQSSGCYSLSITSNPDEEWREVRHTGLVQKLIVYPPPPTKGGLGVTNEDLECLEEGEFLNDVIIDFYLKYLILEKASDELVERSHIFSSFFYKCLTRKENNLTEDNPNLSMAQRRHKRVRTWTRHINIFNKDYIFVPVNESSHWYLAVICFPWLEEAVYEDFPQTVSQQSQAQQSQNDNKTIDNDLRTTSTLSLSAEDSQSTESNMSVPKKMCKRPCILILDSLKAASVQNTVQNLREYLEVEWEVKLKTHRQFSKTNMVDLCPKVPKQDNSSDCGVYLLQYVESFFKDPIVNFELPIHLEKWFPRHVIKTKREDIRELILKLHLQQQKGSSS

[9] = target: T4, Sentrin-specific protease 7; experiment: SENP7 protease inhibitors, SAR follow-up, biochemical, luminescence (AID 504497); assay type: functional
Caspase-3 [10] = target: T3, Caspase-3; experiment: caspase-3 inhibitors as off-family protease, SAR follow-up, selectivity assay for SENP protease inhibitor project, biochemical, luminescence, set 2 (AID 588599); assay type: functional
[11] = target: T5, Sentrin-specific protease 8 (Homo sapiens, UniProt Q96LD8); experiment: SENP8 protease inhibitors, SAR follow-up, biochemical, luminescence, set 2 (AID 588601); assay type: functional
T5 sequence (Q96LD8 whole entry): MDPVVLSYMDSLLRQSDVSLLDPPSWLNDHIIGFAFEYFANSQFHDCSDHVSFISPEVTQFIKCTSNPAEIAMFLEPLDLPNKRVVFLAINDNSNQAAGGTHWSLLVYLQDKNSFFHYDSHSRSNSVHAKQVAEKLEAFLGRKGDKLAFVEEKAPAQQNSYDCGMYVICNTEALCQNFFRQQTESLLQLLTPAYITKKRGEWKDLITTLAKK

[12] = target: T5, Sentrin-specific protease 8; experiment: SENP8 protease inhibitors, SAR follow-up, biochemical, luminescence (AID 504501); assay type: functional
[13] = target: T6, Ubiquitin-conjugating enzyme E2 N (Homo sapiens, UniProt P61088); assay type: functional
T6 sequence (P61088 whole entry): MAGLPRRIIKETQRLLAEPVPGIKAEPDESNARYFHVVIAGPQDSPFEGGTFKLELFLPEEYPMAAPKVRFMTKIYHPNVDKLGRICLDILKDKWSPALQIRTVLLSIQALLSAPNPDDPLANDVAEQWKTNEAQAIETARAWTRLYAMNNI

Bcl-2-related protein A1 = target: T7, Bcl-2-related protein A1 (Mus musculus, UniProt Q07440); assay type: functional;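 also: confirmatory dose–response counterscreen on Bfl-1, used to check hits from a UBC13 polyubiquitin inhibitor campaign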
T7 sequence (Q07440 whole entry): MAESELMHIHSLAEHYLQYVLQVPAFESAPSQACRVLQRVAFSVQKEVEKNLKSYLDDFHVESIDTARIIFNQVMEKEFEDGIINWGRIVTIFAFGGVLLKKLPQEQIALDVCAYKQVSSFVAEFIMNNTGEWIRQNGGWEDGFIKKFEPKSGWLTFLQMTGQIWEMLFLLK

[14] = target: T6, Ubiquitin-conjugating enzyme E2 N; assay type: functional; remark: listed apart in the source

SMILES	IC50 [5]	IC50 (Caspase-3 [6])	IC50 [7]	IC50 [8]	IC50 [9]	IC50 (Caspase-3 [10])	IC50 (HEK293 [1])	EC50 (Insulin-degrading enzyme [2])	EC50 (Insulin-degrading enzyme [3])	EC50 (HEK293 [4])	IC50 [11]	IC50 [12]	IC50 [13]	IC50 (Bcl-2-related protein A1)	IC50 [14]
O=C(c1ccccc1)C1NC1c1ccccc1 (configuration not stated)							> 89.3 µM (inactive)	> 54.7 µM (inactive)	> 54.7 µM (inactive)	> 54.7 µM (inactive)					
C#CCOCCOCCOCCNc1nc(N2CCN(C(=O)CCCCCCCCCCNC(=O)[C@H](CCCCN)n3cc(C[C@@H](C)CC)nn3)CC2)nc(N2CCN(C(=O)CCCCCCCCCCNC(=O)[C@H](CCCN=C(N)N)n3cc(C[C@@H](C)CC)nn3)CC2)n1							2.17 µM (active)	> 2.03 µM (active)	> 2.03 µM (active)	> 54.7 µM (inactive)			1.44 µM (active)	4.6 µM (active)	2 µM (active)

Second part, led by results:

IC50 [5]	IC50 (Caspase-3 [6])	IC50 [7]	IC50 [8]	IC50 [9]	IC50 (Caspase-3 [10])	SMILES	IC50 (HEK293 [1])	EC50 (Insulin-degrading enzyme [2])	EC50 (Insulin-degrading enzyme [3])	EC50 (HEK293 [4])	IC50 [11]	IC50 [12]	IC50 [13]	IC50 (Bcl-2-related protein A1)	IC50 [14]
0.938 µM (active)	0.72 µM (active)	0.79 µM (active)	0.987 µM (active)	0.92 µM (active)	0.749 µM (active)	CCCCc1ccc2nc(NC(=O)c3cccn3C)sc2c1					0.944 µM (active)	0.81 µM (active)			
> 99 µM (inactive)			> 99 µM (inactive)		> 99 µM (inactive)	Cc1ccc2nc(NC(=O)c3cccc(S(=O)(=O)NCC4CCCO4)c3)sc2c1 (configuration not stated)					> 99 µM (inactive)				
	> 99 µM (inactive)	> 99 µM (inactive)		> 99 µM (inactive)		O=C(CCc1ccccc1)NNc1cc(N2CCOCC2)nc(N2CCOCC2)n1						> 99 µM (inactive)			
